# Results: patent US12376538B2, “Rice cultivar designated ‘CLL17’” (Board of Supervisors of Louisiana State University and …, priority 2020, dated 2025)
# Test system: ‘CLL17’ rice plant
# Assay: Herbicide tolerance and susceptibility of 'CLL17' rice plants
# Type: in vivo
# Conditions: at levels of the herbicide that would normally inhibit the growth of a rice plant
# Source text: The variety is resistant to imidazolinone herbicides. The herbicide resistance (or herbicide tolerance) profile is essentially the same as that of ‘CL161’ through common ancestry. The herbicide tolerance allows ‘CLL17,’ its hybrids, and derived varieties to be used with certain imidazolinone or sulfonylurea herbicides, including among others the imidazolinone herbicides imazethapyr and imazamox, for the selective control of weeds including red rice. See generally U.S. Pat. No. 6,943,280.
# Among others, the herbicide tolerance and susceptibility characteristics of ‘CLL17’ include or are expected to include the following.
row,Compound,herbicide tolerance / susceptibility of ‘CLL17’ (resistant or sensitive)
1,CCc1cnc(C2=NC(C)(C(C)C)C(=O)N2)c(C(=O)O)c1 (stereo not drawn) [imazethapyr],resistant
2,Cc1cnc(C2=NC(=O)C(C)(C(C)C)N2)c(C(=O)O)c1 (stereo not drawn) [imazapic],resistant
3,CC(C)C1(C)N=C(c2nc3ccccc3cc2C(=O)O)NC1=O (stereo not drawn) [imazaquin],resistant
4,COc1cc(OC)nc(NC(=O)NS(=O)(=O)c2ncccc2C(=O)N(C)C)n1 [nicosulfuron],resistant
5,CC(C)C1(C)N=C(c2ncccc2C(=O)O)NC1=O (stereo not drawn) [imazapyr],resistant
6,COCc1cnc(C2=NC(C)(C(C)C)C(=O)N2)c(C(=O)O)c1 (stereo not drawn) [imazamox],resistant
7,CCS(=O)(=O)c1cccnc1S(=O)(=O)NC(=O)Nc1nc(OC)cc(OC)n1 [rimsulfuron],sensitive
8,COC(=O)c1ccccc1S(=O)(=O)NC(=O)Nc1nc(C)cc(C)n1 [sulfometuron methyl],sensitive
9,CCOC(=O)c1ccccc1S(=O)(=O)NC(=O)Nc1nc(Cl)cc(OC)n1 [chlorimuron ethyl],sensitive
10,COC(=O)c1ccccc1S(=O)(=O)NC(=O)Nc1nc(C)nc(OC)n1 [metsulfuron methyl],resistant
11,COC(=O)c1sccc1S(=O)(=O)NC(=O)Nc1nc(C)nc(OC)n1 [thifensulfuron methyl],resistant
12,COC(=O)c1ccccc1S(=O)(=O)NC(=O)N(C)c1nc(C)nc(OC)n1 [tribenuron methyl],resistant
